Laboratory results from patent publication US20220380314A1, “SUBSTITUTED, SATURATED AND UNSATURATED N-HETEROCYCLIC CARBOXAMIDES AND RELATED COMPOUNDS FOR THEIR USE IN THE TREATMENT OF MEDICAL DISORDERS” (Bial - R&D Investments, S.A., priority 2019, published 2022).
≈ marks a conversion by molar mass, not a printed value. Where two headings read alike, the source gives them in different places.

Experiments:
[1] = molecular target: T1, acid ceramidase (hACR) (Homo sapiens, UniProt Q13510); assay: Acid ceramidase inhibition, biochemical fluorescent assay with cell lysates overexpressing acid ceramidase, substrate Rbm14-12
T1 construct: expressed in transfected cells; cell lysate used
T1 sequence (Q13510 143-395 limits assumed): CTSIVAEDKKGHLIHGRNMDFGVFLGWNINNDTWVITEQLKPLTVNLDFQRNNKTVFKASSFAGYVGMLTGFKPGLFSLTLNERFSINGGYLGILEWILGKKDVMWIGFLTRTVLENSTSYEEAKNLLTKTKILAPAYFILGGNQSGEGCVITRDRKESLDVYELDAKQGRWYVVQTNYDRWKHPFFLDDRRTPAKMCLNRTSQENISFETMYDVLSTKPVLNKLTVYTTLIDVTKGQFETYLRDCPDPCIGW
T1 sequence (Q13510 22-142 limits assumed): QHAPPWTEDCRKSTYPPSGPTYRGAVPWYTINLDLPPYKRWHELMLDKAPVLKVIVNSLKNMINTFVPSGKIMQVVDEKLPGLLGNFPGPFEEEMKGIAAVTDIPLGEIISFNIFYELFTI
How it was run: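 Enzyme source was lysate (10 µg protein) from cells overexpressing acid ceramidase, preincubated 1 hr at RT with compound dose series in 25 mM NaAc, 100 mM NaCl, pH 4.5. Rbm14-12 (6.3 μM final) reacted 1 hr at RT; stop buffer (methanol, NaIO4, glycine, pH 10.6) 1 hr, fluorescence ex360/em446; IC50 from four-parameter fit.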

[2] = Compound solubility in water; format: physicochemical
[3] = cell lysates overexpressing acid ceramidase, 1 hr preincubation at RT, pH 4.5, substrate Rbm14-12 6.3 μM, read-out: hACR IC50

SMILES	IC50 [1, 3] [µM]	solubility [2] [µM]	IC50 [1] [µM]
Cn1ccnc1-c1cccc2c1CCC(C)(C)N2C(=O)NCCc1ccccc1 [Example 13, 2,2-Dimethyl-5-(1-methyl-1H-imidazol-2-yl)-N-phenethyl-3,4-dihydroquinoline-1(2H)-carboxamide]	> 1	33.6 (≈ 13.1 µg/mL)	
CC1(C)CC2(CCCCO2)CCN1C(=O)NCCCCC1CC1 (stereo not drawn) [Example 43, N-(4-Cyclopropylbutyl)-8,8-dimethyl-1-oxa-9-azaspiro[5.5]undecane-9-carboxamide]	0.2 to 1	16.5 (≈ 5.32 µg/mL)	
CN1CC(c2ccc3c(c2)N(C(=O)NCCc2ccccc2)C(C)(C)CC3)C1 [Example 50]	< 0.2	32.2 (≈ 12.2 µg/mL)	
O=C(NCCCc1ccccc1)N1CCOCC12CCCC2 [Example 60, N-(3-Phenylpropyl)-9-oxa-6-azaspiro[4.5]decane-6-carboxamide]	> 1	25.2 (≈ 7.62 µg/mL)	
O=C(NCCCc1ccc(F)cc1)N1CCCCC12CCCC2 [Example 58, N-(3-(4-Fluorophenyl)propyl)-6-azaspiro[4.5]decane-6-carboxamide]	< 0.2	3 (≈ 0.955 µg/mL)	
CN1CCN(C2CCN(C(=O)NCCc3ccccc3)C(C)(C)C2)CC1 (stereo not drawn) [Example 26, 2,2-Dimethyl-4-(4-methylpiperazin-1-yl)-N-phenethylpiperidine-1-carboxamide]	> 1	43.7 (≈ 15.7 µg/mL)	
O=C(NCCCc1ccccc1)N1CCCCC12CCCC2 [Example 56, N-(3-Phenylpropyl)-6-azaspiro[4.5]decane-6-carboxamide]	< 0.2	4.9 (≈ 1.47 µg/mL)	
CCCCNC(=O)N1CCC2(CCCCO2)CC1(C)C (stereo not drawn) [Example 31, N-Butyl-8,8-dimethyl-1-oxa-9-azaspiro[5.5]undecane-9-carboxamide]	> 1	32 (≈ 9.04 µg/mL)	
CC(=O)N1CC(c2ccc3c(c2)N(C(=O)NCCc2ccccc2)C(C)(C)CC3)C1 [Example 70, 7-(1-Acetylazetidin-3-yl)-2,2-dimethyl-N-phenethyl-3,4-dihydroquinoline-1(2H)-carboxamide]	0.2 to 1	15.6 (≈ 6.33 µg/mL)	
CN1CCC(c2cccc3c2CCC(C)(C)N3C(=O)NCCc2ccccc2)CC1 [Example 2, 2,2-Dimethyl-5-(1-methylpiperidin-4-yl)-N-phenethyl-3,4-dihydroquinoline-1(2H)-carboxamide]	< 0.2	36.5 (≈ 14.8 µg/mL)	
CC1(C)CC(c2ccccc2)CCN1C(=O)NCCc1ccccc1 (stereo not drawn) [Example 55, 2,2-Dimethyl-N-phenethyl-4-phenylpipridine-1-carboxamide]	< 0.2	0.4 (≈ 0.135 µg/mL)	
CC1(C)c2ccccc2CCN1C(=O)NCCc1ccccc1 [Example 15, 1,1-Dimethyl-N-phenethyl-3,4-dihydroisoquinoline-2(1H)-carboxamide]	> 1	0.9 (≈ 0.278 µg/mL)	
CN1CCN(c2cccc3c2CCC(C)(C)N3C(=O)NCCc2ccccc2)CC1 [Example 29, 2,2-Dimethyl-5-(4-methylpiperazin-1-yl)-N-phenethyl-3,4-dihydroquinoline-1(2H)-carboxamide]	> 1	31.7 (≈ 12.9 µg/mL)	
O=C(NCCc1ccccc1)N1CCCCC12CCCC2 [Example 45, N-Phenethyl-6-azaspiro[4.5]decane-6-carboxamide]	0.2 to 1	6 (≈ 1.72 µg/mL)	
O=C(NCCCc1ccccc1)N1CCCC12CCCC2 [Example 57, N-(3-Phenylpropyl)-1-azaspiro[4.4]nonane-1-carboxamide]	> 1	19.4 (≈ 5.56 µg/mL)	
COc1ccc(C2COCC(C)(C)N2C(=O)NCCOCC2CC2)cc1 (stereo not drawn) [Example 157, N-[2-(Cyclopropylmethoxy)ethyl]-5-(4-methoxyphenyl)-3,3-dimethylmorpholine-4-carboxamide]	< 0.2	> 100	
COc1ccc(C2COCC(C)(C)N2C(=O)NCC2CCOCC2)cc1 (stereo not drawn) [Example 145, 5-(4-Methoxyphenyl)-3,3-dimethyl-N-(tetrahydropyran-4-ylmethyl)morpholine-4-carboxamide]		91.3 (≈ 33.1 µg/mL)	0.2 to 1
CN1CC(c2cccc3c2CCC(C)(C)N3C(=O)NCCc2ccccc2)C1 [Example 49]	0.2 to 1	35.3 (≈ 13.3 µg/mL)	
CN1CCC(c2ccc3c(c2)CC(C)(C)N(C(=O)NCCc2ccccc2)C3)CC1 [Example 21, 3,3-Dimethyl-6-(1-methylpiperidin-4-yl)-N-phenethyl-3,4-dihydroisoquinoline-2(1H)-carboxamide]	> 1	34.2 (≈ 13.9 µg/mL)	
COc1ccc(C2COCC(C)(C)N2C(=O)NCCF)cc1 (stereo not drawn) [Example 154, N-(2-Fluoroethyl)-5-(4-methoxyphenyl)-3,3-dimethylmorpholine-4-carboxamide]	0.2 to 1	92.9 (≈ 28.8 µg/mL)	
CN1CC(c2ccccc2)N(C(=O)NCCCCc2ccccc2)C(C)(C)C1 (stereo not drawn) [Example 165, 2,2,4-Trimethyl-6-phenyl-N-(4-phenylbutyl)piperazine-1-carboxamide]	< 0.2	71.6 (≈ 27.2 µg/mL)	

Continued, in another order:

IC50 [1, 3] [µM]	solubility [2] [µM]	SMILES	IC50 [1] [µM]
0.2 to 1	3.7 (≈ 1.18 µg/mL)	CC(C)CCNC(=O)N1CCC(Oc2ccccc2)CC1(C)C (stereo not drawn) [Example 41, N-iso-Pentyl-2,2-dimethyl-4-phenoxypiperidine-1-carboxamide]	
0.2 to 1	6.02 (≈ 1.97 µg/mL)	CC1(C)CCc2cccc(F)c2N1C(=O)NCCc1ccccc1 [Example 35, 8-Fluoro-2,2-dimethyl-N-phenethyl-3,4-dihydroquinoline-1(2H)-carboxamide]	
< 0.2	0.01 (≈ 0.00381 µg/mL)	CC1(C)CC(Oc2ccccc2)CCN1C(=O)NCCCCc1ccccc1 (stereo not drawn) [Example 89, 2,2-Dimethyl-4-phenoxy-N-(4-phenylbutyl)piperidine-1-carboxamide]	
0.2 to 1	23.2 (≈ 6.04 µg/mL)	CC1(C)CCCCN1C(=O)NCCc1ccccc1 [Example 25, 2,2-Dimethyl-N-phenethylpiperidine-1-carboxamide]	
> 1	4.3 (≈ 1.39 µg/mL)	CC1(C)CC(F)=CCN1C(=O)NCCCC1(C(F)(F)F)CC1 [Example 73, 4-fluoro-2,2-Dimethyl-N-(3-(1-(trifluoromethyl)cyclopropyl)propyl)-3,6-dihydropyridine-1(2H)-carboxamide]	
0.2 to 1	79.2 (≈ 28.5 µg/mL)	COc1ccc(C2COCC(C)(C)N2C(=O)NCCC(F)(F)F)cc1 (stereo not drawn) [Example 153, 5-(4-Methoxyphenyl)-3,3-dimethyl-N-(3,3,3-trifluoropropyl)morpholine-4-carboxamide]	
< 0.2	23.4 (≈ 6.42 µg/mL)	CC1(C)CCCCN1C(=O)NCCCc1ccccc1 [Example 40, 2,2-Dimethyl-N-(3-phenylpropyl)piperidine-1-carboxamide]	
> 1	0.01	CN(c1ccccc1)C1CCN(C(=O)NCCCCc2ccccc2)C(C)(C)C1.Cl (stereo not drawn) [Example 88, 2,2-Dimethyl-4-(N-methylanilino)-N-(4-phenylbutyl)piperidine-1-carboxamide hydrochloride]	
< 0.2	> 100	CC1(C)CC(N2CCCCC2)CCN1C(=O)NCCCCc1ccccc1 (stereo not drawn) [Example 83, 2,2-Dimethyl-N-(4-phenylbutyl)-4-(1-piperidyl)piperidine-1-carboxamide]	
> 1	25.6 (≈ 6.72 µg/mL)	CC1(C)COCCN1C(=O)NCCc1ccccc1 [Example 53, 3,3-Dimethyl-N-phenethylmorpholine-4-carboxamide]	
0.2 to 1	16.8 (≈ 4.37 µg/mL)	CCCCNC(=O)N1c2ccccc2CCC1(C)C [Example 27, N-Butyl-2,2-dimethyl-3,4-dihydroquinoline-1(2H)-carboxamide]	
0.2 to 1	21.4 (≈ 7.33 µg/mL)	CC1(C)CC(F)(F)CCN1C(=O)NCCCC1(C(F)(F)F)CC1 [Example 72, 4,4-Difluoro-2,2-dimethyl-N-(3-(1-(trifluoromethyl)cyclopropyl)propyl)piperidine-1-carboxamide]	
0.2 to 1	40.6 (≈ 14.5 µg/mL)	CCCCNC(=O)N1c2cccc(C3CCN(C)CC3)c2CCC1(C)C [Example 24, N-Butyl-2,2-dimethyl-5-(1-methylpiperidin-4-yl)-3,4-dihydroquinoline-1(2H)-carboxamide]	
0.2 to 1	5.7 (≈ 1.76 µg/mL)	CC1(C)Cc2ccccc2CN1C(=O)NCCc1ccccc1 [Example 22, 3,3-Dimethyl-N-phenethyl-3,4-dihydroisoquinoline-2(1H)-carboxamide]	
< 0.2	25.7 (≈ 7.98 µg/mL)	CC1(C)CC(F)(F)CCN1C(=O)NCCCc1ccccc1 [Example 61, 4,4-Difluoro-2,2-dimethyl-N-(3-phenylpropyl)piperidine-1-carboxamide]	
< 0.2	93 (≈ 30 µg/mL)	CCCCCNC(=O)N1C(c2ccc(F)cc2)COCC1(C)C (stereo not drawn) [Example 137, 5-(4-Fluorophenyl)-3,3-dimethyl-N-pentylmorpholine-4-carboxamide]	
> 1	23.6 (≈ 6.5 µg/mL)	CN1CCN(C(=O)NCCc2ccccc2)C(C)(C)C1 [Example 34, 2,2,4-Trimethyl-N-phenethylpiperazine-1-carboxamide]	
< 0.2	91 (≈ 30.4 µg/mL)	CCCCCNC(=O)N1C(c2ccc(OC)cc2)COCC1(C)C (stereo not drawn) [Example 156, 5-(4-Methoxyphenyl)-3,3-dimethyl-N-pentylmorpholine-4-carboxamide]	
